In patent publication US20100216779A1 (GLAXOSMITHKLINE LLC, priority 2007, published 2010):

What was measured:
Assay type in all cases: cell-based
[1] = test system: COLO205 (colon); assay: Inhibition of cell proliferation, CellTiter-Glo, COLO205; conditions: Homo sapiens, COLO 205, 72 h
Outline: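 Exponentially growing COLO205 cells in medium with 10% FBS were plated below 2000 cells/well at 37 °C, 5% CO2. Untreated wells served as controls.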

[2] = test system: NCI-H929 (multiple myeloma); assay: Inhibition of cell proliferation, CellTiter-Glo, NCI-H929; conditions: Homo sapiens, 72 h
Outline: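 Cells were grown in medium with 10% FBS at 37° C, 5% CO2. Cell number was read as CellTiter-Glo luminescence (cellular ATP), with untreated wells as control.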

[3] = target: T1, IR (NIH-3T3 cells over expressing human IGF-1R or IR) (Homo sapiens, UniProt P06213); assay: IR cellular autophosphorylation (DELFIA); conditions: NIH-3T3 cells over expressing IR, insulin stimulated
T1 construct: expressed in transfected cells; host or cells: NIH-3T3 (mouse fibroblasts)
T1 sequence (P06213 28-1382): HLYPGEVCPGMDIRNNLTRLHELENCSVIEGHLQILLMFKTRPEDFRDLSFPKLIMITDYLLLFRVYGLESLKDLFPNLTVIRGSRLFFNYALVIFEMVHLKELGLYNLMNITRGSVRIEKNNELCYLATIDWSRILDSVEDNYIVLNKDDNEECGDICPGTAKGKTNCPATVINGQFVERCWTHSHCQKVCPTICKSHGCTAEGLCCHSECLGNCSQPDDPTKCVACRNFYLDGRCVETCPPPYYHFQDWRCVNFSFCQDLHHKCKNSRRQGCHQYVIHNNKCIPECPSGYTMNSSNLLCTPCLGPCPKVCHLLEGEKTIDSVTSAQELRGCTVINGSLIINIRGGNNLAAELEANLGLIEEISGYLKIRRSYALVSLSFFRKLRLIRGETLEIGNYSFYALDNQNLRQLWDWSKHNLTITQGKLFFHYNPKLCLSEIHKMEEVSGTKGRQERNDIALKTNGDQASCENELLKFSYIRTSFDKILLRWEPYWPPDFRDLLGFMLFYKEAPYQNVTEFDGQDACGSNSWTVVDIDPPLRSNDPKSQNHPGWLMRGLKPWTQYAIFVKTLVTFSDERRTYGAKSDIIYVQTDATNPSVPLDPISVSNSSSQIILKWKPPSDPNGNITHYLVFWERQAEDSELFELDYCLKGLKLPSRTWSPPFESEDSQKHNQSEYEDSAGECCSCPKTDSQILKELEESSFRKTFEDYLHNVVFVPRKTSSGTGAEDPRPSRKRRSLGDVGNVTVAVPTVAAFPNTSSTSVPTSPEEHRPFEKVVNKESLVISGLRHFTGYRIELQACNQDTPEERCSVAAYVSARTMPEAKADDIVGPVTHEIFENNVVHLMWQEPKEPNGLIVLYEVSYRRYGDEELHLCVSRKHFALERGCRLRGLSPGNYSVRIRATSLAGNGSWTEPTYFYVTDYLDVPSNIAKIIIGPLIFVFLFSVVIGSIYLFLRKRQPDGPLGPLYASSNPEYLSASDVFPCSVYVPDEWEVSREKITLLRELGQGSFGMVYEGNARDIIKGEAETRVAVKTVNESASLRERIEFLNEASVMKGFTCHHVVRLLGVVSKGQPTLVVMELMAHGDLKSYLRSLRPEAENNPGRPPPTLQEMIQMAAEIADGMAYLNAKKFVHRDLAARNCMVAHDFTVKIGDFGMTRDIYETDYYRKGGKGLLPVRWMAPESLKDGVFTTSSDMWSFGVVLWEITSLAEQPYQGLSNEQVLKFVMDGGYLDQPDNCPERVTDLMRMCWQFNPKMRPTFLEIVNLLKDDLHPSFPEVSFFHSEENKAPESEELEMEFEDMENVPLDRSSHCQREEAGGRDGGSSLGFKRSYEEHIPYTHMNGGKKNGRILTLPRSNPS
Outline: (§1)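 Read-out: DELFIA on lysates, receptor-specific capture antibody plus europium-labelled anti-phosphotyrosine, reported as % of IGF-1- or insulin-stimulated signal. Transfected NIH-3T3 cells got compound (30 uM–1.5 nM, 2 h) before a 15 min ligand pulse: IGF-1 30 ng/mL for IGF-1R, insulin 3 ug/mL for IR.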

[4] = target: T2, human IGF-1R (NIH-3T3 cells over expressing human IGF-1R) (Homo sapiens, UniProt P08069); assay: IGF-1R cellular autophosphorylation (DELFIA); conditions: IGF-1 stimulated
T2 construct: expressed in transfected cells; host or cells: NIH-3T3 (mouse fibroblasts)
T2 sequence (P08069 31-1367): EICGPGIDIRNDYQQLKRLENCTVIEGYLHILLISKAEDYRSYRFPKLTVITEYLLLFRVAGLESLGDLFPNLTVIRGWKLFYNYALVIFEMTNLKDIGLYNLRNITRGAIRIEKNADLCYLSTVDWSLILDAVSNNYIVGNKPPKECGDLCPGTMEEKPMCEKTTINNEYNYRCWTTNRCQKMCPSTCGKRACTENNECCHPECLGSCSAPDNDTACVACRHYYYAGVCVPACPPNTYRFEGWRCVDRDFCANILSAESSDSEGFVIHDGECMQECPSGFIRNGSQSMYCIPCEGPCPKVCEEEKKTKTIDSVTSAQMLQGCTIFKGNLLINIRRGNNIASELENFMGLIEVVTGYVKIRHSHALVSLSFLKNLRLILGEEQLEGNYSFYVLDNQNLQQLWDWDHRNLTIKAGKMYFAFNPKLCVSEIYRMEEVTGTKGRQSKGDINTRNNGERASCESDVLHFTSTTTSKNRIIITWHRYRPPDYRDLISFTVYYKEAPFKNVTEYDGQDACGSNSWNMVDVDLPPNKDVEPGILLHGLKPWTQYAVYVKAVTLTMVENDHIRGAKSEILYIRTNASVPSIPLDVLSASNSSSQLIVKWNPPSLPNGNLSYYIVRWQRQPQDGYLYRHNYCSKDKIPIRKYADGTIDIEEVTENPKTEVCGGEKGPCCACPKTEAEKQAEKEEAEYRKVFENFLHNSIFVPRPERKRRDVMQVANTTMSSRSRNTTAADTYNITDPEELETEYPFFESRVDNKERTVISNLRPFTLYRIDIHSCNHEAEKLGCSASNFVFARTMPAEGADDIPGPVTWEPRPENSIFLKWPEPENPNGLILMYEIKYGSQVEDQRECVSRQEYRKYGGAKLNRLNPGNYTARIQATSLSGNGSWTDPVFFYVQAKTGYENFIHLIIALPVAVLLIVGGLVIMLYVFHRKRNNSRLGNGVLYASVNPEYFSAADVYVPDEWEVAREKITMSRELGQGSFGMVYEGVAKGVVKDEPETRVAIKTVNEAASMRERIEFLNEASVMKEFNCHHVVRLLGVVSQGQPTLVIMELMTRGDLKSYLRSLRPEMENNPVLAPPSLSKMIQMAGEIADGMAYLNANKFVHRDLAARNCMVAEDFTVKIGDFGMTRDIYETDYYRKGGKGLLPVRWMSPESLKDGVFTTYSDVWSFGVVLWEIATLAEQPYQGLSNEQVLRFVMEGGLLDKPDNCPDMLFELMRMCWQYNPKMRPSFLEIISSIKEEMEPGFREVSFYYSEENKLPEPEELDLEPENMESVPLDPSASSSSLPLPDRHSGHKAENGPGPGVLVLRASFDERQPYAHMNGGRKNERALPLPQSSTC
Outline: as §1

Row | IC50 [1] | IC50 [2] | IC50 [3] | IC50 [4] | Structure (SMILES)
1 | 250 to 1000 nM | < 250 nM | < 100 nM | < 100 nM | CCCN1CCN(c2ccc(Nc3nccc(-c4c(-c5ccc(OCC)c(C(=O)Nc6c(F)cccc6F)c5)nc5ccccn45)n3)c(OCC)c2)CC1 [Example 152, N-(2,6-difluorophenyl)-2-(ethyloxy)-5-[3-(2-{[2-(ethyloxy)-4-(4-propyl-1-piperazinyl)phenyl]amino}-4-pyrimidinyl)imidazo[1,2-a]pyridin-2-yl]benzamide]
2 | 250 to 1000 nM | < 250 nM | < 100 nM | < 100 nM | COc1cc(C2CCN(CCS(C)(=O)=O)CC2)ccc1Nc1nccc(-c2c(-c3cccc(C(=O)Nc4c(F)cccc4F)c3)nc3ccccn23)n1 [Example 180, N-(2,6-difluorophenyl)-3-(3-{2-[(2-(methyloxy)-4-{1-[2-(methylsulfonyl)ethyl]-4-piperidinyl}phenyl)amino]-4-pyrimidinyl}imidazo[1,2-a]pyridin-2-yl)benzamide]
3 | 250 to 1000 nM | < 250 nM | < 100 nM | < 100 nM | COc1cc(N2CCC(N3CCN(C(C)=O)CC3)CC2)ccc1Nc1nccc(-c2c(-c3cccc(C(=O)Nc4c(F)cccc4F)c3)nc3ccccn23)n1 [Example 70]
4 | > 1000 nM | > 1000 nM | > 500 nM | > 500 nM | COc1c(Nc2nccc(-c3c(-c4cccc(C(=O)Nc5c(F)cccc5F)c4)nc4ccccn34)n2)ccc(N2CCC(N3CCCCC3)CC2)c1C [Example 54, 3-[3-(2-{[4-(1,4′-bipiperidin-1′-yl)-3-methyl-2-(methyloxy)phenyl]amino}-4-pyrimidinyl)imidazo[1,2-a]pyridin-2-yl]-N-(2,6-difluorophenyl)benzamide]
5 | < 250 nM | < 250 nM | < 100 nM | < 100 nM | CCOc1cc(N2CCC(N3CCN(S(C)(=O)=O)CC3)CC2)ccc1Nc1nccc(-c2c(-c3ccc(OC)c(C(=O)Nc4c(F)cccc4F)c3)nc3ccccn23)n1 [Example 223, N-(2,6-difluorophenyl)-5-(3-{2-[(2-(ethyloxy)-4-{4-[4-(methylsulfonyl)-1-piperazinyl]-1-piperidinyl}phenyl)amino]-4-pyrimidinyl}imidazo[1,2-a]pyridin-2-yl)-2-(methyloxy)benzamide]
6 | 250 to 1000 nM | < 250 nM | < 100 nM | < 100 nM | CCCN1CCN(c2ccc(Nc3nccc(-c4c(-c5ccc(OC)c(C(=O)Nc6c(F)cccc6F)c5)nc5ccccn45)n3)c(OC)c2)CC1 [Example 174, N-(2,6-difluorophenyl)-2-(methyloxy)-5-[3-(2-{[2-(methyloxy)-4-(4-propyl-1-piperazinyl)phenyl]amino}-4-pyrimidinyl)imidazo[1,2-a]pyridin-2-yl]benzamide]
7 | 250 to 1000 nM | < 250 nM | 100 to 500 nM | 100 to 500 nM | COc1cc(N2CCC(CCS(C)(=O)=O)CC2)ccc1Nc1nccc(-c2c(-c3cccc(C(=O)Nc4c(F)cccc4F)c3)nc3ccccn23)n1 [Example 202, N-(2,6-difluorophenyl)-3-(3-{2-[(2-(methyloxy)-4-{4-[2-(methylsulfonyl)ethyl)-1-piperidinyl}phenyl)amino]-4-pyrimidinyl]imidazo[1,2-a]pyridin-2-yl)benzamide]
8 | 250 to 1000 nM | < 250 nM | < 100 nM | < 100 nM | CCCN1CCC(c2ccc(Nc3nccc(-c4c(-c5ccc(OCC)c(C(=O)Nc6c(F)cccc6F)c5)nc5ccccn45)n3)c(OCC)c2)CC1 [Example 156, N-(2,6-difluorophenyl)-2-(ethyloxy)-5-[3-(2-{[2-(ethyloxy)-4-(1-propyl-4-piperidinyl)phenyl]amino}-4-pyrimidinyl)imidazo[1,2-a]pyridin-2-yl]benzamide]
9 | 250 to 1000 nM | 250 to 1000 nM | 100 to 500 nM | 100 to 500 nM | CCOc1cc(N2CCC(N3CCN(CCC(F)(F)F)CC3)CC2)ccc1Nc1nccc(-c2c(-c3cccc(C(=O)Nc4c(F)cccc4F)c3)nc3ccccn23)n1 [Example 118, N-(2,6-difluorophenyl)-3-(3-{2-[(2-(ethyloxy)-4-{4-[4-(3,3,3-trifluoropropyl)-1-piperazinyl]-1-piperidinyl}phenyl)amino]-4-pyrimidinyl}imidazo[1,2-a]pyridin-2-yl)benzamide]
10 | 250 to 1000 nM | < 250 nM | < 100 nM | < 100 nM | COc1cc(N2CCC(N3CCC(CCS(C)(=O)=O)CC3)CC2)ccc1Nc1nccc(-c2c(-c3ccc(OC)c(C(=O)Nc4c(F)cccc4F)c3)nc3ccccn23)n1 [Example 102, N-(2,6-difluorophenyl)-2-(methyloxy)-5-(3-{2-[(2-(methyloxy)-4-{4-[2-(methylsulfonyl)ethyl]-1,4′-bipiperidin-1′-yl}phenyl)amino]-4-pyrimidinyl}imidazo[1,2-a]pyridin-2-yl)benzamide]
11 | < 250 nM | < 250 nM | < 100 nM | < 100 nM | CCOc1cc(N2CCN(CCS(C)(=O)=O)CC2)c(C)cc1Nc1nccc(-c2c(-c3ccc(OCC)c(C(=O)Nc4c(F)cccc4F)c3)nc3ccccn23)n1 [Example 248, N-(2,6-difluorophenyl)-2-(ethyloxy)-5-(3-{2-[(2-(ethyloxy)-5-methyl-4-{4-[2-(methylsulfonyl)ethyl]-1-piperazinyl}phenyl)amino]-4-pyrimidinyl}imidazo[1,2-a]pyridin-2-yl)benzamide]
12 | 250 to 1000 nM | 250 to 1000 nM | < 100 nM | 100 to 500 nM | COCCN(CCOC)C1CCN(c2ccc(Nc3nccc(-c4c(-c5cccc(C(=O)Nc6c(F)cccc6F)c5)nc5ccccn45)n3)c(OC)c2)CC1 [Example 49, 3-[3-(2-{[4-(4-{bis[2-(methyloxy)ethyl]amino}-1-piperidinyl)-2-(methyloxy)phenyl]amino}-4-pyrimidinyl)imidazo[1,2-a]pyridin-2-yl]-N-(2,6-difluorophenyl)benzamide]
13 | 250 to 1000 nM | < 250 nM | < 100 nM | < 100 nM | COc1cc(N2CCC(N3CCN4CCOC[C@@H]4C3)CC2)ccc1Nc1nccc(-c2c(-c3cccc(C(=O)Nc4c(F)cccc4F)c3)nc3ccccn23)n1 [Example 87, N-(2,6-difluorophenyl)-3-[3-(2-{[4-{4-[(9aS)-hexahydropyrazino[2,1-c][1,4]oxazin-8(1H)-yl]-1-piperidinyl}-2-(methyloxy)phenyl]amino}-4-pyrimidinyl)imidazo[1,2-a]pyridin-2-yl]benzamide]
14 | < 250 nM | < 250 nM | < 100 nM | < 100 nM | CCOc1cc(N2CCC(N3CCN(S(C)(=O)=O)CC3)CC2)c(CC)cc1Nc1nccc(-c2c(-c3ccc(OC)c(C(=O)Nc4c(F)cccc4F)c3)nc3ccccn23)n1 [Example 204, N-(2,6-difluorophenyl)-5-(3-{2-[(5-ethyl-2-(ethyloxy)-4-{4-[4-(methylsulfonyl)-1-piperazinyl]-1-piperidinyl]phenyl)amino]-4-pyrimidinyl}imidazo[1,2-a]pyridin-2-yl)-2-(methyloxy)benzamide]
15 | 250 to 1000 nM | < 250 nM | < 100 nM | < 100 nM | CCOc1ccc(-c2nc3ccccn3c2-c2ccnc(Nc3ccc(N4CCC(N5CCN(CCS(C)(=O)=O)CC5)CC4)cc3OC)n2)cc1C(=O)Nc1c(F)cccc1F [Example 66, N-(2,6-difluorophenyl)-2-(ethyloxy)-5-[3-(2-{[2-(methyloxy)-4-(4-{4-[2-(methylsulfonyl)-ethyl]-1-piperazinyl}-1-piperidinyl)phenyl]amino}-4-pyrimidinyl)imidazo[1,2-a]pyridin-2-yl]benzamide]
16 | 250 to 1000 nM | < 250 nM | < 100 nM | < 100 nM | COc1cc(N2CCC(N3CCN(CCS(C)(=O)=O)CC3)CC2)c(Cl)cc1Nc1nccc(-c2c(-c3cccc(C(=O)Nc4c(F)cccc4F)c3)nc3ccccn23)n1 [Example 114, 3-[3-(2-{[5-chloro-2-(methyloxy)-4-(4-{4-[2-(methylsulfonyl)ethyl]-1-piperazinyl}-1-piperidinyl)phenyl]amino}-4-pyrimidinyl)imidazo[1,2-a]pyridin-2-yl]-N-(2,6-difluorophenyl)-benzamide]

Row | Structure (SMILES) | IC50 [1] | IC50 [2] | IC50 [3] | IC50 [4]
17 | COc1cc(N2CCC(N3CCN(CCF)CC3)CC2)c(C)cc1Nc1nccc(-c2c(-c3cccc(C(=O)Nc4c(F)cccc4F)c3)nc3ccccn23)n1 [Example 113, N-(2,6-difluorophenyl)-3-[3-(2-{[4-{4-[4-(2-fluoroethyl)-1-piperazinyl]-1-piperidinyl}-5-methyl-2-(methyloxy)phenyl]amino]-4-pyrimidinyl)imidazo[1,2-a]pyridin-2-yl]benzamide] | > 1000 nM | 250 to 1000 nM | < 100 nM | < 100 nM
18 | COc1cc(N2CCC(C3CCN(CCF)CC3)CC2)ccc1Nc1nccc(-c2c(-c3ccc(OC)c(C(=O)Nc4c(F)cccc4F)c3)nc3ccccn23)n1 [Example 96, N-(2,6-difluorophenyl)-5-[3-(2-{[4-[1′-(2-fluoroethyl)-4,4′-bipiperidin-1-yl]-2-(methyloxy)phenyl]amino}-4-pyrimidinyl)imidazo[1,2-a]pyridin-2-yl]-2-(methyloxy)benzamide] | > 1000 nM | 250 to 1000 nM | < 100 nM | < 100 nM
